# Test system: HIV-1NL4-3
# Test: P4-MAGI assay
# Assay type: cell-based
# Settings: Human immunodeficiency virus 1, 24 h, P4 cells, 24 hour incubation, β-galactosidase expression; read-out: P4-MAGI IC50
# Excerpt: P4 cells were used to test the effects of compounds on virus fusion activity. P4 cells are HIV-1 infectable CD4^+ HeLa cells that bear the bacterial lacZ gene under the control of a minimal HIV-1 LTR. Charneau, et. al., J. Mol. Biol. 241:651-662 (1994). When these cells are infected with HIV-1, β-galactosidase is expressed due to Tat activation of the viral LTR. In this assay, P4 cells were infected with the laboratory adapted strain HIV-1NL4-3 at a multiplicity of infection of 1 in the presence of DEAE-Dextran. Immediately after addition of virus to the cells, increasing concentrations of compound were added to the cells. […] The effect on cell viability (TC50, concentration of compound that inhibits growth by 50%) was determined in mock-infected cells with the WST-1 Cell Proliferation Reagent (Roche Diagnostics).
row,SMILES,IC50 [nM]
1,C=C(C)[C@@H]1CC[C@]2(C(=O)NCc3cccc(-c4nc(-c5cccc(C(=O)O)c5)no4)c3)CC[C@]3(C)C(CCC4[C@@]5(C)CC[C@H](O)C(C)(C)C5CC[C@]43C)C12 (stereo partly drawn) [Example 127],768
2,C=C(C)[C@@H]1CC[C@]2(C(=O)NCc3cccc(C(=O)NCc4cc(C(=O)O)ccn4)c3)CC[C@]3(C)C(CCC4[C@@]5(C)CC[C@H](O)C(C)(C)C5CC[C@]43C)C12 (stereo partly drawn) [Example 31],573
3,C=C(C)[C@@H]1CC[C@]2(C(=O)NCc3cccc(C(=O)Nc4cccc(C(=O)O)c4)c3)CC[C@]3(C)C(CCC4[C@@]5(C)CC[C@H](O)C(C)(C)C5CC[C@]43C)C12 (stereo partly drawn) [Example 15],320
4,C=C(C)[C@@H]1CC[C@]2(C(=O)NCc3cccc(C(=O)NCc4cccc(C(=O)O)n4)n3)CC[C@]3(C)C(CCC4[C@@]5(C)CC[C@H](O)C(C)(C)C5CC[C@]43C)C12 (stereo partly drawn) [Example 91],3900
5,C=C(C)[C@@H]1CC[C@]2(C(=O)NCc3cccc(C(=O)NCc4ccccc4C(=O)O)c3)CC[C@]3(C)C(CCC4[C@@]5(C)CC[C@H](O)C(C)(C)C5CC[C@]43C)C12 (stereo partly drawn) [Example 8],875
6,C=C(C)[C@@H]1CC[C@]2(C(=O)NCc3cccc(C(=O)O)n3)CC[C@]3(C)C(CCC4[C@@]5(C)CC[C@H](O)C(C)(C)C5CC[C@]43C)C12 (stereo partly drawn) [Example 86],3600
7,C=C(C)[C@@H]1CC[C@]2(C(=O)NCCc3cccc(S(=O)(=O)NCc4cccc(C(=O)OC)c4)c3)CC[C@]3(C)C(CCC4[C@@]5(C)CC[C@H](O)C(C)(C)C5CC[C@]43C)C12 (stereo partly drawn) [Example 248],208
8,C=C(C)[C@@H]1CC[C@]2(C(=O)NCCc3cccc(C(=O)NC(Cc4ccc(O)cc4)C(=O)OC)c3)CC[C@]3(C)C(CCC4[C@@]5(C)CC[C@H](O)C(C)(C)C5CC[C@]43C)C12 (stereo partly drawn) [Example 144],204
9,C=C(C)[C@@H]1CC[C@]2(C(=O)NCc3ccc(F)c(C(=O)NCCc4cccc(C(=O)OC)c4)c3)CC[C@]3(C)C(CCC4[C@@]5(C)CC[C@H](O)C(C)(C)C5CC[C@]43C)C12 (stereo partly drawn) [Example 106],1300
10,C=C(C)[C@@H]1CC[C@]2(C(=O)NCc3cccc(CNC(=O)c4ccc(C(=O)O)c(C(=O)O)c4)c3)CC[C@]3(C)C(CCC4[C@@]5(C)CC[C@H](O)C(C)(C)C5CC[C@]43C)C12 (stereo partly drawn) [Example 78],7000
11,C=C(C)[C@@H]1CC[C@]2(C(=O)Nc3cccc(C(=O)NCCc4cccc(C(=O)O)c4)c3)CC[C@]3(C)C(CCC4[C@@]5(C)CC[C@H](O)C(C)(C)C5CC[C@]43C)C12 (stereo partly drawn) [Example 85],10000
12,C=C(C)[C@@H]1CC[C@]2(C(=O)NCc3cccc(CNC(=O)c4cc(C(=O)O)ccc4C(=O)O)c3)CC[C@]3(C)C(CCC4[C@@]5(C)CC[C@H](O)C(C)(C)C5CC[C@]43C)C12 (stereo partly drawn) [Example 79],412
13,C=C(C)[C@@H]1CC[C@]2(C(=O)NCCc3cccc(C(=O)NC4CCC(C(=O)O)CC4)c3)CC[C@]3(C)C(CCC4[C@@]5(C)CC[C@H](O)C(C)(C)C5CC[C@]43C)C12 (stereo partly drawn) [Example 209],356
14,C=C(C)[C@@H]1CC[C@]2(C(=O)NCCc3cc(C(=O)NCc4ccc(C(=O)O)cn4)ccc3F)CC[C@]3(C)C(CCC4[C@@]5(C)CC[C@H](O)C(C)(C)C5CC[C@]43C)C12 (stereo partly drawn) [Example 263],198
15,C=C(C)[C@@H]1CC[C@]2(C(=O)NCc3cc(C(=O)NCc4ccc(N(C)C)cc4)ccc3F)CC[C@]3(C)C(CCC4[C@@]5(C)CC[C@H](O)C(C)(C)C5CC[C@]43C)C12 (stereo partly drawn) [Example 180],1000
16,C=C(C)[C@@H]1CC[C@]2(C(=O)NCc3cccc(C(=O)Nc4ccc(C(=O)O)cc4)c3)CC[C@]3(C)C(CCC4[C@@]5(C)CC[C@H](O)C(C)(C)C5CC[C@]43C)C12 (stereo partly drawn) [Example 14],1800
17,C=C(C)[C@@H]1CC[C@]2(C(=O)NCCc3cccc(C(=O)NCc4ccc(OCCCn5cnc(C(=O)O)c5)c(C(=O)O)c4)c3)CC[C@]3(C)C(CCC4[C@@]5(C)CC[C@H](O)C(C)(C)C5CC[C@]43C)C12 (stereo partly drawn) [Example 247],417
18,C=C(C)[C@@H]1CC[C@]2(C(=O)NCc3cccc(COCc4cccc(C(=O)O)c4)c3)CC[C@]3(C)C(CCC4[C@@]5(C)CC[C@H](O)C(C)(C)C5CC[C@]43C)C12 (stereo partly drawn) [Example 206],444
19,C=C(C)[C@@H]1CC[C@]2(C(=O)NCCc3cccc(C(=O)NCC(=O)O)c3)CC[C@]3(C)C(CCC4[C@@]5(C)CC[C@H](O)C(C)(C)C5CC[C@]43C)C12 (stereo partly drawn) [Example 64],220
20,C=C(C)[C@@H]1CC[C@]2(C(=O)NCCc3cccc(C(=O)NC(Cc4ccc(O)cc4)C(=O)O)c3)CC[C@]3(C)C(CCC4[C@@]5(C)CC[C@H](O)C(C)(C)C5CC[C@]43C)C12 (stereo partly drawn) [Example 145],1100

row,SMILES,IC50 [nM]
1,C=C(C)[C@@H]1CC[C@]2(C(=O)NCc3cccc(C(=O)NCc4ccc(OCCCN(C)CCN(C)C)c(C(=O)OC)c4)c3)CC[C@]3(C)C(CCC4[C@@]5(C)CC[C@H](O)C(C)(C)C5CC[C@]43C)C12 (stereo partly drawn) [Example 122],265
2,C=C(C)[C@@H]1CC[C@]2(C(=O)NCc3cccc(C(=O)NCCc4cccc(C(=O)O)c4)c3)CC[C@]3(C)C(CCC4[C@@]5(C)CC[C@H](O)C(C)(C)C5CC[C@]43C)C12 (stereo partly drawn) [Example 11],55
3,C=C(C)[C@@H]1CC[C@]2(C(=O)NCC(C)c3cccc(C(=O)NCc4cccc(C(=O)O)c4)c3)CC[C@]3(C)C(CCC4[C@@]5(C)CC[C@H](O)C(C)(C)C5CC[C@]43C)C12 (stereo partly drawn) [Example 82],150
4,C=C(C)[C@@H]1CC[C@]2(C(=O)NCCc3cccc(C(=O)NCC4CCCN4C(=O)OC(C)(C)C)c3)CC[C@]3(C)C(CCC4[C@@]5(C)CC[C@H](O)C(C)(C)C5CC[C@]43C)C12 (stereo partly drawn) [Example 203],856
5,C=C(C)[C@@H]1CC[C@]2(C(=O)NCc3cc(C(=O)NCc4cccc(C(=O)OC)c4F)ccc3F)CC[C@]3(C)C(CCC4[C@@]5(C)CC[C@H](O)C(C)(C)C5CC[C@]43C)C12 (stereo partly drawn) [Example 182],600
6,C=C(C)[C@@H]1CC[C@]2(C(=O)NCc3cccc(C(=O)NCc4ccc(OCC(=O)O)c(C(=O)O)c4)c3)CC[C@]3(C)C(CCC4[C@@]5(C)CC[C@H](O)C(C)(C)C5CC[C@]43C)C12 (stereo partly drawn) [Example 120],620
7,C=C(C)[C@@H]1CC[C@]2(C(=O)NCCc3cccc(C(=O)NC4CCC(C(=O)OC)CC4)c3)CC[C@]3(C)C(CCC4[C@@]5(C)CC[C@H](O)C(C)(C)C5CC[C@]43C)C12 (stereo partly drawn) [Example 207],193
8,C=C(C)[C@@H]1CC[C@]2(C(=O)NCc3cccc(C(=O)NCCc4cc(OC)cc(OC)c4)c3)CC[C@]3(C)C(CCC4[C@@]5(C)CC[C@H](O)C(C)(C)C5CC[C@]43C)C12 (stereo partly drawn) [Example 44],52
9,C=C(C)[C@@H]1CC[C@]2(C(=O)NCc3cccc(-c4nc5cc(C(=O)O)ccc5[nH]4)c3)CC[C@]3(C)C(CCC4[C@@]5(C)CC[C@H](O)C(C)(C)C5CC[C@]43C)C12 (stereo partly drawn) [Example 126],66
10,C=C(C)[C@@H]1CC[C@]2(C(=O)NCc3ccc(C(=O)NCc4ccc(C(=O)O)o4)o3)CC[C@]3(C)C(CCC4[C@@]5(C)CC[C@H](O)C(C)(C)C5CC[C@]43C)C12 (stereo partly drawn) [Example 90],6500
11,C=C(C)[C@@H]1CC[C@]2(C(=O)NCCc3cccc(C(=O)NCc4ncccc4C(=O)O)c3)CC[C@]3(C)C(CCC4[C@@]5(C)CC[C@H](O)C(C)(C)C5CC[C@]43C)C12 (stereo partly drawn) [Example 228],135
12,C=C(C)[C@@H]1CC[C@]2(C(=O)NCc3cccc(C(=O)NCc4ccc(OC)cc4OC)c3)CC[C@]3(C)C(CCC4[C@@]5(C)CC[C@H](O)C(C)(C)C5CC[C@]43C)C12 (stereo partly drawn) [Example 46],59
13,C=C(C)[C@@H]1CC[C@]2(C(=O)NCCc3cccc(OCC(O)c4ccc(C(=O)O)cc4)c3)CC[C@]3(C)C(CCC4[C@@]5(C)CC[C@H](O)C(C)(C)C5CC[C@]43C)C12 (stereo partly drawn) [Example 220],259
14,C=C(C)[C@@H]1CC[C@]2(C(=O)NCCc3ccccc3C(=O)NCCCCC(=O)O)CC[C@]3(C)C(CCC4[C@@]5(C)CC[C@H](O)C(C)(C)C5CC[C@]43C)C12 (stereo partly drawn) [Example 54],3400
15,C=C(C)[C@@H]1CC[C@]2(C(=O)NCc3cccc(C(=O)NC4(Cc5ccc(C(=O)O)cc5)CC4)c3)CC[C@]3(C)C(CCC4[C@@]5(C)CC[C@H](O)C(C)(C)C5CC[C@]43C)C12 (stereo partly drawn) [Example 28],1200
16,C=C(C)[C@@H]1CC[C@]2(C(=O)NCc3ccc(C(=O)O)o3)CC[C@]3(C)C(CCC4[C@@]5(C)CC[C@H](O)C(C)(C)C5CC[C@]43C)C12 (stereo partly drawn) [Example 88],6900
17,C=C(C)[C@@H]1CC[C@]2(C(=O)NCCc3cccc(C(=O)NCC4(C(=O)O)CC4)c3)CC[C@]3(C)C(CCC4[C@@]5(C)CC[C@H](O)C(C)(C)C5CC[C@]43C)C12 (stereo partly drawn) [Example 219],396
18,C=C(C)[C@@H]1CC[C@]2(C(=O)NCc3cccc(-c4cccc(C(=O)O)c4)c3)CC[C@]3(C)C(CCC4[C@@]5(C)CC[C@H](O)C(C)(C)C5CC[C@]43C)C12 (stereo partly drawn) [Example 128],1000
19,C=C(C)[C@@H]1CC[C@]2(C(=O)NCCc3cccc(C(=O)NCC(=O)NC)c3)CC[C@]3(C)C(CCC4[C@@]5(C)CC[C@H](O)C(C)(C)C5CC[C@]43C)C12 (stereo partly drawn) [Example 71],2700
20,C=C(C)[C@@H]1CC[C@]2(C(=O)NCc3cccc(-c4noc(Cc5ccc(-c6nnn[nH]6)cc5)n4)c3)CC[C@]3(C)C(CCC4[C@@]5(C)CC[C@H](O)C(C)(C)C5CC[C@]43C)C12 (stereo partly drawn) [Example 277],10000

# Same assay, conditions: Human immunodeficiency virus 1, text statement, less than about 100 nm; read-out: P4-MAGI assay IC50
row,SMILES,IC50 [nM]
1,C=C(C)[C@@H]1CC[C@]2(C(=O)NCc3cccc(C(=O)NCCc4cccc(C(=O)O)c4)c3)CC[C@]3(C)C(CCC4[C@@]5(C)CC[C@H](O)C(C)(C)C5CC[C@]43C)C12 (stereo partly drawn) [Example 11],< 100
2,C=C(C)[C@@H]1CC[C@]2(C(=O)NCc3cccc(C(=O)NCCc4cc(OC)cc(OC)c4)c3)CC[C@]3(C)C(CCC4[C@@]5(C)CC[C@H](O)C(C)(C)C5CC[C@]43C)C12 (stereo partly drawn) [Example 44],< 100
3,C=C(C)[C@@H]1CC[C@]2(C(=O)NCc3cccc(-c4nc5cc(C(=O)O)ccc5[nH]4)c3)CC[C@]3(C)C(CCC4[C@@]5(C)CC[C@H](O)C(C)(C)C5CC[C@]43C)C12 (stereo partly drawn) [Example 126],< 100
4,C=C(C)[C@@H]1CC[C@]2(C(=O)NCc3cccc(C(=O)NCc4ccc(OC)cc4OC)c3)CC[C@]3(C)C(CCC4[C@@]5(C)CC[C@H](O)C(C)(C)C5CC[C@]43C)C12 (stereo partly drawn) [Example 46],< 100

# Same assay, conditions: P4 cells, 24 hour incubation, β-galactosidase expression; read-out: P4-MAGI IC50
row,SMILES,IC50 [nM]
1,"CC(O)(CO)[C@@H]1CC[C@]2(C(=O)NCc3cccc(C(=O)NCCCCC(=O)O)c3)CC[C@]3(C)C(CCC4[C@@]5(C)CC[C@H](O)C(C)(C)C5CC[C@]43C)C12 (single isomer, unassigned) [Example 140]",1600

# — US20090275583A1, “ANTIVIRAL COMPOUNDS AND USE THEREOF” (Myriad Genetics, Incorporated, priority 2006, published 2009)
